Assays:
Raji [1] = test: Antiproliferative activity against human Raji cells assessed as cell growth inhibition at 0.1 uM incubated for 96 hrs by MTT assay; assay type: functional; parameters: scale not given: the % may be the effect or the level left
Raji [2] = test: Antiproliferative activity against human Raji cells assessed as cell growth inhibition at 0.2 uM preincubated with uridine for 24 hrs followed by compound addition and measured after 72 hrs by MTT assay; assay type: functional; parameters: scale not given: the % may be the effect or the level left
[3] = Plasma protein binding in rat at 1 uM incubated for 5 hrs by LC-MS analysis; assay type: ADME, cell-free; details: read-out: PPB (converted)
[4] = Plasma protein binding in rat at 10 uM incubated for 5 hrs by LC-MS analysis; assay type: ADME, cell-free; details: read-out: PPB (converted)
[5] = Microsomal stability in human liver microsomes assessed as half life at 1 uM measured upto 120 mins in presence of NADPH by LC-MS analysis; assay type: ADME, Microsome
[6] = Microsomal stability in rat liver microsomes assessed as half life at 1 uM measured upto 120 mins in presence of NADPH by LC-MS analysis; assay type: ADME, Microsome
[7] = AUC(0 to t) in Sprague-Dawley rat at 15 mg/kg, po measured after 48 hrs by LC-MS analysis; assay type: ADME, organism-based; parameters: dose 15 mg/kg, time 48 hrs, route po; details: in vivo
[8] = Acute toxicity in BALB/c mouse assessed effect on body weight at 400 mg/kg, po; assay type: organism-based; details: in vivo
[9] = Acute toxicity in BALB/c mouse assessed effect on feeding at 400 mg/kg, po; assay type: organism-based; details: in vivo
Mus musculus [10] = test: Toxicity in NOD-SCID mouse xenografted with human Raji cells assessed as mortality at 40 mg/kg, po administered for 25 days; assay type: organism-based; details: in vivo, 600 h, time 25 day
Mus musculus [11] = test: Toxicity in NOD-SCID mouse xenografted with human Raji cells assessed as change in uric acid level at 40 mg/kg, po administered for 25 days; assay type: organism-based; details: in vivo, 600 h, time 25 day
Raji [12] = test: Antitumor activity against human Raji cells xenografted in NOD-SCID mouse assessed as tumor growth inhibition at 15 mg/kg, po administered for 25 days; assay type: functional; details: 600 h, time 25 day, read-out: TGI
[13] = Drug distribution in NOD-SCID mouse liver at 40 mg/kg, po administered for 25 days by LC-MS analysis; assay type: ADME, organism-based; details: in vivo, 600 h, time 25 day
[14] = Drug distribution in NOD-SCID mouse lung at 40 mg/kg, po administered for 25 days by LC-MS analysis; assay type: ADME, organism-based; details: in vivo, 600 h, time 25 day

SMILES: C/C(O)=C(\C#N)C(=O)Nc1cc(O[C@@H](C)C(F)(F)F)c(C(=O)Nc2c(F)cccc2F)cc1F
- Activity (Raji [1]): 43.1%
- Activity (Raji [2]): 17.1%
- fraction unbound at 5 h, 1 µM [3]: 0.014
- fraction unbound at 5 h, 10 µM [4]: 0.007
- half-life at 1 µM [5]: 23.1 h
- half-life at 1 µM [6]: 1.43 h
- AUC(0-t) at 48 h [7]: 29500 ng·h/mL
- Activity [8]: Non-Toxic
- Activity [9]: Non-Toxic
- Activity (Mus musculus [10]): Non-Toxic
- Activity (Mus musculus [11]): Non-Toxic
- inhibition in vivo at 15 mg/kg (Raji [12]): 72.2%
- Drug uptake [13]: Active
- Drug uptake [14]: Active

Reference: ChEMBL document CHEMBL5053556, “Design, Synthesis, and Biological Evaluation of a Novel Series of Teriflunomide Derivatives as Potent Human Dihydroorotate Dehydrogenase Inhibitors for Malignancy Treatment” (J Med Chem, 2021)
